ChEMBL document CHEMBL6103559, “Marine actinomycetes-derived angucyclines and angucyclinones with biosynthesis and activity--past 10 years (2014-2023)” (Eur J Med Chem, 2025)
Values after ≈ are worked out from the molar mass of the structure shown.

How the values were obtained:
Enterococcus faecalis = test: Antibacterial activity against multi-drug resistant Enterococcus faecalis CCARM 5172 assessed as inhibition of bacterial growth incubated for 18 hrs by microplate reader analysis; format: functional
Enterococcus faecium = test: Antibacterial activity against multi-drug resistant Enterococcus faecium CCARM 5203 assessed as inhibition of bacterial growth incubated for 18 hrs by microplate reader analysis; format: functional
Escherichia coli [1] = test: Antibacterial activity against multi-drug resistant Escherichia coli CCARM 1009 assessed as inhibition of bacterial growth incubated for 18 hrs by microplate reader analysis; format: functional
Salmonella typhimurium = test: Antibacterial activity against multi-drug resistant Salmonella Typhimurium CCARM 8250 assessed as inhibition of bacterial growth incubated for 18 hrs by microplate reader analysis; format: functional, Salmonella enterica subsp. enterica serovar Typhimurium; settings: Salmonella enterica
Staphylococcus aureus [2] = test: Antibacterial activity against multi-drug resistant Staphylococcus aureus CCARM 3090 assessed as inhibition of bacterial growth incubated for 18 hrs by microplate reader analysis; format: functional
HCT-116 [3] = test: Cytotoxicity against human HCT-116 cells by SRB assay; format: functional, cell-based
MDA-MB-231 [4] = test: Cytotoxicity against human MDA-MB-231 cells by SRB assay; format: functional, cell-based
SNU-638 = test: Cytotoxicity against human SNU-638 cells by SRB assay; format: functional, cell-based
A549 [5] = test: Cytotoxicity against human A549 cells by SRB assay; format: functional, cell-based
SK-HEP1 = test: Cytotoxicity against human SK-HEP1 cells by SRB assay; format: functional, cell-based
Staphylococcus aureus [6] = test: Antibacterial activity against methicillin-resistant Staphylococcus aureus assessed as reduction in microbial growth by CLSI based broth microdilution method; format: functional
MDA-MB-231 [7] = test: Cytotoxicity against human MDA-MB-231 cells assessed as reduction in cell growth by MTT assay; format: functional, cell-based
K562 = test: Cytotoxicity against human K562 cells assessed as reduction in cell growth by MTT assay; format: functional, cell-based
ASPC1 = test: Cytotoxicity against human ASPC1 cells assessed as reduction in cell growth by MTT assay; format: functional, cell-based
H69AR = test: Cytotoxicity against human NCI-H69AR cells assessed as reduction in cell growth by MTT assay; format: functional, cell-based
NCI-H69 = test: Cytotoxicity against human NCI-H69 cells assessed as reduction in cell growth by MTT assay; format: functional, cell-based
ACHN = test: Growth inhibition of human ACHN cells after 48 hrs by sulforhodamine B assay; format: functional
HCT-15 = test: Growth inhibition of human HCT-15 cells after 48 hrs by sulforhodamine B assay; format: functional
MDA-MB-231 [8] = test: Growth inhibition of human MDA-MB-231 cells after 48 hrs by sulforhodamine B assay; format: functional
NCI-H23 = test: Growth inhibition of human NCI-H23 cells after 48 hrs by sulforhodamine B assay; format: functional
NUGC-3 = test: Growth inhibition of human NUGC-3 cells after 48 hrs by sulforhodamine B assay; format: functional
PC-3 [9] = test: Growth inhibition of human PC-3 cells after 48 hrs by sulforhodamine B assay; format: functional
PC-3 [10] = test: Cytotoxicity against human PC-3 cells; format: functional, cell-based
Jurkat = test: Cytotoxicity against human Jurkat T cells; format: functional, cell-based
MDA-MB-435 = test: Cytotoxicity against human MDA-MB-435 cells assessed as reduction in cell viability incubated for 48 hrs by MTT assay; format: functional, cell-based; settings: MDA-MB-435, 48 h
MDA-MB-231 [11] = test: Cytotoxicity against human MDA-MB-231 cells assessed as reduction in cell viability incubated for 48 hrs by MTT assay; format: functional, cell-based; settings: MDA-MB-231, 48 h
NCI-H460 = test: Cytotoxicity against human NCI-H460 cells assessed as reduction in cell viability incubated for 48 hrs by MTT assay; format: functional, cell-based; settings: NCI-H460, 48 h
HCT-116 [12] = test: Cytotoxicity against human HCT-116 cells assessed as reduction in cell viability incubated for 48 hrs by MTT assay; format: functional, cell-based; settings: HCT-116, 48 h
HepG2 [13] = test: Cytotoxicity against human HepG2 cells assessed as reduction in cell viability incubated for 48 hrs by MTT assay; format: functional, cell-based; settings: HepG2, 48 h
MCF-10A = test: Cytotoxicity against human MCF-10A cells assessed as reduction in cell viability incubated for 48 hrs by MTT assay; format: functional, cell-based
Staphylococcus aureus [14] = test: Antibacterial activity against Staphylococcus aureus ATCC 43300 assessed as reduction in bacterial growth measured for 12 hrs by broth micro-dilution method; format: functional
Candida albicans = test: Antifungal activity against Candida albicans assessed as reduction in […] growth measured for 12 hrs by broth micro-dilution method; format: functional
MCF7 = test: Cytotoxicity against human MCF7 cells assessed as reduction in cell growth incubated for 72 hrs by SRB assay; format: functional, cell-based; settings: MCF7, 72 h
A549 [15] = test: Cytotoxicity against human A549 cells assessed as reduction in cell growth incubated for 72 hrs by SRB assay; format: functional, cell-based; settings: A549, 72 h
HepG2 [16] = test: Cytotoxicity against human HepG2 cells assessed as reduction in cell growth incubated for 72 hrs by SRB assay; format: functional, cell-based; settings: HepG2, 72 h
SF-268 = test: Cytotoxicity against human SF-268 cells assessed as reduction in cell growth incubated for 72 hrs by SRB assay; format: functional, cell-based; settings: SF-268, 72 h
PC-3 [17] = test: Cytotoxicity against human PC-3 cells assessed as reduction in cell growth by SRB assay; format: functional, cell-based
A2780 = test: Cytotoxicity against human A2780 cells assessed as reduction in cell growth by SRB assay; format: functional, cell-based
Pseudomonas aeruginosa = test: Antimicrobial activity against Pseudomonas aeruginosa CMCC(B) 10104 assessed as reduction in microbial growth measured for 18 hrs; format: functional
Staphylococcus aureus [18] = test: Antimicrobial activity against methicillin-resistant Staphylococcus aureus assessed as reduction in microbial growth measured for 18 hrs; format: functional
Klebsiella pneumoniae = test: Antibacterial activity against Klebsiella pneumoniae CMCC(B) 46117 assessed as reduction in microbial growth measured for 18 hrs; format: functional
Escherichia coli [19] = test: Antibacterial activity against Escherichia coli CMCC(B) 44102 assessed as reduction in microbial growth measured for 18 hrs; format: functional
Bacillus subtilis = test: Antibacterial activity against Bacillus subtilis CMCC(B) 63501 assessed as reduction in microbial growth measured for 18 hrs; format: functional
MDA-MB-231 [20] = test: Cytotoxicity against human MDA-MB-231 cells; format: functional, cell-based
MDA-MB-468 = test: Cytotoxicity against human MDA-MB-468 cells; format: functional, cell-based
BT-549 = test: Cytotoxicity against human BT-549 cells; format: functional, cell-based

## C[C@@H]1O[C@@H](O[C@H]2[C@H](O)C[C@H](c3ccc4c(c3O)C(=O)c3ccc(C[C@@](C)(O)CC(=O)O)c(O)c3C4=O)O[C@@H]2C)CC[C@@H]1O
Enterococcus faecalis
  MIC: 3.12 µg/mL (≈ 5.19 µM)
Enterococcus faecium
  MIC: 3.12 µg/mL (≈ 5.19 µM)
Escherichia coli [1]
  MIC: 3.12 µg/mL (≈ 5.19 µM)
Salmonella typhimurium
  MIC: 3.12 µg/mL (≈ 5.19 µM)
Staphylococcus aureus [2]
  MIC: 3.12 µg/mL (≈ 5.19 µM)

## COc1cccc2c1C(=O)O[C@H]2c1c(O)ccc2c1C(=O)C[C@@H](C)[C@@H]2O
HCT-116 [3]
  IC50: 6.7 µM
MDA-MB-231 [4]
  IC50: 6.7 µM
SNU-638
  IC50: 6.7 µM
A549 [5]
  IC50: 6.7 µM
SK-HEP1
  IC50: 6.7 µM

## CC(C)C1(O)CC(=O)c2c(cc(O)c3c2C(=O)c2cccc(O)c2C3=O)C1=O (stereo not given)
Staphylococcus aureus [6]
  MIC: 3.12 µg/mL

## CC(C)C1(O)CC(=O)c2c(cc(O)c3c2C(=O)c2cccc(O)c2C3=O)C1 (stereo not given)
Staphylococcus aureus [6]
  MIC: 3.12 µg/mL

## CC1=CC(=O)[C@]2(O)[C@](O)(CC[C@@]34O[C@@]23C(=O)c2cccc(O)c2C4=O)C1
MDA-MB-231 [7]
  IC50: 0.32 µM
K562
  IC50: 0.32 µM
ASPC1
  IC50: 0.32 µM
H69AR
  IC50: 0.32 µM
NCI-H69
  IC50: 0.32 µM

## CSC1=CC2=C(C(=O)c3ccc([C@H]4C[C@@H](O[C@H]5CC[C@H](O[C@H]6C[C@@H](O)[C@H](O)[C@@H](C)O6)[C@H](C)O5)[C@H](O)CO4)c(O)c3C2=O)[C@@]2(O)C(=O)C[C@](C)(O)C[C@@]12O
ACHN
  GI50: 0.01 µM
HCT-15
  GI50: 0.01 µM
MDA-MB-231 [8]
  GI50: 0.01 µM
NCI-H23
  GI50: 0.01 µM
NUGC-3
  GI50: 0.01 µM
PC-3 [9]
  GI50: 0.01 µM

## C[C@@]12CC(=O)[C@@]3(O)[C@](O)(CC[C@H]4C(=O)c5c(O)cccc5[C@@H](O)[C@@]43O1)C2
PC-3 [10]
  IC50: 1.38 µM

## Cc1cc(O)c2cc3c(c(O)c2c1)C(=O)c1ccc([C@H]2C[C@@H](O)[C@H](O[C@H]4CC[C@H](OC5=CC(=O)[C@@H](C)OC5)[C@H](C)O4)[C@@H](C)O2)c(O)c1C3=O
Jurkat
  IC50: 3 µM

## C[C@@H]1O[C@@H](O[C@H]2CC[C@H](O[C@H]3[C@H](O)C[C@H](c4ccc5c(c4O)C(=O)c4ccc6c(c4C5=O)C(=O)C[C@](C)(O)C6)O[C@@H]3C)O[C@H]2C)CCC1=O
MDA-MB-435
  IC50: 2.4 µM
MDA-MB-231 [11]
  IC50: 2.4 µM
NCI-H460
  IC50: 2.4 µM
HCT-116 [12]
  IC50: 2.4 µM
HepG2 [13]
  IC50: 2.4 µM
MCF-10A
  IC50: 2.4 µM

## CC(=O)C[C@H](SCc1cc2cc(C)cc(O)c2c2c1C(=O)c1c(O)cccc1C2=O)C(=O)O
Staphylococcus aureus [14]
  MIC: 20 µM (≈ 9.29 µg/mL)
Candida albicans
  MIC: 20 µM (≈ 9.29 µg/mL)

## Cc1cc(O)c2c(c1)C1c3c-2c(O)c2cccc(O)c2c3OC(=O)C1c1c[nH]c2ccccc12 (stereo not given)
MCF7
  IC50: 7 µM
A549 [15]
  IC50: 7 µM
HepG2 [16]
  IC50: 7 µM
SF-268
  IC50: 7 µM

## CC(=O)N[C@@H](CSc1cc2cc(C)cc(O)c2c2c1C(=O)c1c(O)cccc1C2=O)C(=O)O
PC-3 [17]
  IC50: 19.4 µM
A2780
  IC50: 10.2 µM
Staphylococcus aureus [14]
  MIC: 20 µM (≈ 9.31 µg/mL)
Candida albicans
  MIC: 20 µM (≈ 9.31 µg/mL)

## CO[C@@H]1C[C@@H](O[C@H]2C=C(C)[C@@H](O)[C@]3(O)[C@@H](OC(=O)O)[C@@H](O)C4=C(C(=O)c5ccc([C@H]6C[C@@H](O[C@H]7C[C@](C)(O)[C@H](O[C@H]8CC[C@H](OC(N)=O)[C@@H](C)O8)[C@@H](C)O7)[C@@H](O)[C@@H](C)O6)c(O)c5C4=O)[C@]23O)O[C@@H](C)[C@H]1O
Pseudomonas aeruginosa
  MIC: 16 µg/mL
Staphylococcus aureus [18]
  MIC: 16 µg/mL
Klebsiella pneumoniae
  MIC: 16 µg/mL
Escherichia coli [19]
  MIC: 16 µg/mL
Bacillus subtilis
  MIC: 8 µg/mL

## CO[C@@H]1C[C@@H](O[C@H]2C=C(C)C[C@]3(O)[C@@H](OC(=O)O)[C@@H](O)C4=C(C(=O)c5ccc([C@H]6C[C@@H](O[C@H]7C[C@](C)(O)[C@H](O[C@H]8CC[C@H](OC(N)=O)[C@@H](C)O8)[C@@H](C)O7)[C@@H](O)[C@@H](C)O6)c(O)c5C4=O)[C@]23O)O[C@@H](C)[C@H]1O
Pseudomonas aeruginosa
  MIC: 16 µg/mL
Staphylococcus aureus [18]
  MIC: 16 µg/mL
Klebsiella pneumoniae
  MIC: 16 µg/mL
Escherichia coli [19]
  MIC: 16 µg/mL
Bacillus subtilis
  MIC: 8 µg/mL

## CN[C@@H]1C[C@H](c2c(O)c3c(c4c(O)cc(C)cc24)C(=O)c2cccc(O)c2C3=O)O[C@H](C)[C@H]1O
MDA-MB-231 [20]
  IC50: 0.6 µM
MDA-MB-468
  IC50: 0.6 µM
BT-549
  IC50: 0.6 µM

## CC(C)c1cc(=O)c2c(cc(O)c3c(=O)c4c(O)cccc4c(=O)c32)c1=O
Staphylococcus aureus [6]
  MIC: 3.12 µg/mL
